Assay results reported in ChEMBL document CHEMBL2331107, “Novel fluorescent risedronates: synthesis, photodynamic inactivation and imaging of Bacillus subtilis” (2013).
The source made the active and inactive calls. No cut-off for these calls is given here.

system: Bacillus subtilis; assay: Antimicrobial activity against Bacillus subtilis ATCC 6633 assessed as photodynamic inactivation measured as lethality at 10 uM; assay type: functional; conditions: not given

| SMILES | Activity |
| --- | --- |
| O=C(O)c1cc2ccccc2oc1=O | inactive |
| O=C(NCC(O)C[n+]1cccc(CC(O)(P(=O)(O)O)P(=O)(O)O)c1)c1cc2c(ccc3ccccc32)oc1=O (stereo not drawn) | 47% |
| O=C(O)c1cc2c(ccc3ccccc32)oc1=O | inactive |
| O=C(NCC(O)C[n+]1cccc(CC(O)(P(=O)(O)O)P(=O)(O)O)c1)c1cc2ccccc2oc1=O (stereo not drawn) | 91% |

system: Bacillus subtilis; assay: Antimicrobial activity against Bacillus subtilis ATCC 6633 measured after 24 hrs at 37 degC; assay type: functional; conditions: ATCC 6633, 24 h

| SMILES | MIC |
| --- | --- |
| O=C(NCC(O)C[n+]1cccc(CC(O)(P(=O)(O)O)P(=O)(O)O)c1)c1ccccc1 (stereo not drawn) | > 128 µg/mL |
| O=C(NCC(O)C[n+]1cccc(CC(O)(P(=O)(O)O)P(=O)(O)O)c1)c1cc2c(ccc3ccccc32)oc1=O (stereo not drawn) | > 128 µg/mL |
| O=C(NCC(O)C[n+]1cccc(CC(O)(P(=O)(O)O)P(=O)(O)O)c1)c1cc2ccccc2oc1=O (stereo not drawn) | > 128 µg/mL |
| O=C(NCC(O)C[n+]1cccc(CC(O)(P(=O)(O)O)P(=O)(O)O)c1)c1ccccc1O (stereo not drawn) | > 128 µg/mL |
